Nine compounds from PubChem BioAssay (NCI) can be followed below.

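Protocol summary: plate cells (96-well), add compound at 5 concentrations, incubate 48 h, interpolate endpoints linearly. GI50 = concentration required for 50% inhibition of growth. TGI: total growth inhibition.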 A value given as a limit tells only on which side of the number the result lay.

Test systems include MOLT-4 leukemia; HOP-92 NSCLC; LOX IMVI melanoma; SR leukemia; RXF 393 renal; NCI/ADR-RES ovarian; OVCAR-8 ovarian; SNB-75 CNS; IGROV1 ovarian; SW-620 colon.
Holding throughout (test): DTP human tumour cell line panel, 48 h

Turning to `O=C(NNc1ccccc1)c1ccc(Cl)c(Cl)c1`, the TGI (in general, the concentration giving total growth inhibition) with MOLT-4 leukemia is more than 100 µM; in the test with HOP-92 NSCLC it was more than 100 µM; in the test on LOX IMVI melanoma, more than 100 µM; in the test on SR leukemia, more than 100 µM; with RXF 393 renal it was more than 84 µM; in the test with NCI/ADR-RES ovarian it was more than 100 µM. For the same compound, the TGI was more than 100 µM in the test with OVCAR-8 ovarian, more than 67.8 µM with SNB-75 CNS, more than 60.7 µM with IGROV1 ovarian and more than 100 µM in the test with SW-620 colon.

`Cc1c(Cl)cccc1NC(=O)c1sc2nc3c(cc2c1N)C(=O)CCC3`: the GI50 (in general, the concentration that inhibits growth by half) with MOLT-4 leukemia was 0.466 µM; in the test with HOP-92 NSCLC, 0.0479 µM; with LOX IMVI melanoma, 0.0782 µM; in the test on SR leukemia, 0.0725 µM; in the test on RXF 393 renal, 0.037 µM; with NCI/ADR-RES ovarian, 0.0463 µM. The GI50 with OVCAR-8 ovarian is 0.272 µM; in the test with SNB-75 CNS it was 0.0385 µM; with IGROV1 ovarian, 0.153 µM; in the test with SW-620 colon it was 0.0484 µM. Also, the TGI in the test on MOLT-4 leukemia is more than 100 µM; in the test on HOP-92 NSCLC it was 24.1 µM; in the test on LOX IMVI melanoma it was more than 100 µM; in the test with SR leukemia, more than 100 µM; with RXF 393 renal, 1.11 µM; with NCI/ADR-RES ovarian it was 12.9 µM. The TGI in the test with OVCAR-8 ovarian was more than 55.6 µM; with SNB-75 CNS, 20.9 µM; in the test on IGROV1 ovarian, more than 100 µM; in the test on SW-620 colon, more than 100 µM.

`NC(Cc1cccnn1)C(=O)O` (stereo unspecified): the concentration for total growth inhibition (TGI) with MOLT-4 leukemia, in the test with HOP-92 NSCLC, with LOX IMVI melanoma, in the test on SR leukemia, in the test on RXF 393 renal and with NCI/ADR-RES ovarian was more than 100 µM throughout. In addition, the TGI with OVCAR-8 ovarian, in the test with SNB-75 CNS, in the test on IGROV1 ovarian and with SW-620 colon was more than 100 µM throughout.

With `O=C(NCCCl)Nc1ccccc1`, the TGI with MOLT-4 leukemia, in the test on HOP-92 NSCLC, with LOX IMVI melanoma, in the test on SR leukemia, in the test with RXF 393 renal and in the test on NCI/ADR-RES ovarian was more than 100 µM each time. Besides, the TGI in the test on OVCAR-8 ovarian, with SNB-75 CNS, with IGROV1 ovarian and in the test with SW-620 colon was more than 100 µM throughout.

Regarding `COc1c(B(O)O)cccc1-c1nc2ccc3[nH]ncc3c2c2c1CCCC2`, the GI50 with MOLT-4 leukemia is 1.57 µM; in the test on LOX IMVI melanoma, 1.38 µM; with SR leukemia, 1.13 µM; in the test on RXF 393 renal, 0.0225 µM; in the test on NCI/ADR-RES ovarian it was 2.25 µM; in the test with OVCAR-8 ovarian, 2.39 µM. Further, the GI50 in the test on SNB-75 CNS was 0.0307 µM; in the test with IGROV1 ovarian, 2.25 µM; in the test with SW-620 colon, 1.17 µM. The TGI with MOLT-4 leukemia is more than 34.6 µM; in the test with HOP-92 NSCLC, 6.56 µM; in the test on LOX IMVI melanoma, 6.28 µM; in the test on SR leukemia, 13.9 µM; in the test with RXF 393 renal, 1.25 µM; in the test on NCI/ADR-RES ovarian it was 15.2 µM. The TGI with OVCAR-8 ovarian is more than 38.8 µM; in the test with SNB-75 CNS it was 0.382 µM; in the test on IGROV1 ovarian, 14.3 µM; in the test with SW-620 colon it was 12.1 µM.

`CSc1nnc(-c2cc3c([nH]c4ccccc43)c(-c3cccc(O)c3)n2)n1-c1ccc(C)cc1`: the GI50 in the test with MOLT-4 leukemia was 3.65 µM; in the test on HOP-92 NSCLC, 1.75 µM; with LOX IMVI melanoma, 5.05 µM; in the test on SR leukemia, 2.09 µM; in the test with RXF 393 renal it was 2.11 µM; in the test with NCI/ADR-RES ovarian it was 5.64 µM. The GI50 in the test on OVCAR-8 ovarian is 4.25 µM; in the test on SNB-75 CNS, 1.66 µM; in the test with IGROV1 ovarian, 3.62 µM; with SW-620 colon, 5.8 µM. Besides, the TGI with MOLT-4 leukemia is more than 100 µM; in the test on HOP-92 NSCLC it was 7.59 µM; with LOX IMVI melanoma, more than 100 µM; in the test with SR leukemia it was more than 100 µM; with RXF 393 renal, 6.51 µM; with NCI/ADR-RES ovarian it was more than 100 µM. Also, the total growth inhibition concentration (TGI) in the test on OVCAR-8 ovarian is 45.2 µM; in the test on SNB-75 CNS it was 5.33 µM; in the test on IGROV1 ovarian, 24.6 µM; in the test with SW-620 colon it was more than 100 µM.

As for `C[C@@]1(C(=O)O)CCC[C@]2(C)C1CC[C@]13C[C@@](O)(CO)[C@](O)(CC[C@]12O)C3` (stereo partly specified), the GI50 in the test with MOLT-4 leukemia, in the test on LOX IMVI melanoma, in the test with SR leukemia, in the test on RXF 393 renal, in the test on NCI/ADR-RES ovarian and in the test on OVCAR-8 ovarian was more than 100 µM throughout. The GI50 with SNB-75 CNS, with IGROV1 ovarian and with SW-620 colon was more than 100 µM throughout. Further, the TGI with MOLT-4 leukemia, in the test on LOX IMVI melanoma, with SR leukemia, in the test with RXF 393 renal, in the test with NCI/ADR-RES ovarian and in the test on OVCAR-8 ovarian was more than 100 µM throughout. Moreover, the TGI in the test with SNB-75 CNS, in the test with IGROV1 ovarian and with SW-620 colon was more than 100 µM in each case.

As for `CCCCSc1nc(N)c2cn[nH]c2n1`, the GI50 with MOLT-4 leukemia is 26.3 µM; in the test on LOX IMVI melanoma, 29.9 µM; with SR leukemia, 14.1 µM; with RXF 393 renal, 9.25 µM; in the test on NCI/ADR-RES ovarian, 16.3 µM; with OVCAR-8 ovarian, 23.2 µM. For the same compound, the results for the GI50 in the test on SNB-75 CNS, in the test on IGROV1 ovarian and in the test on SW-620 colon were 26.4 µM, 29.5 µM and 29.1 µM, respectively. Besides, the TGI in the test on MOLT-4 leukemia is more than 78 µM; with HOP-92 NSCLC, 2.39 µM; with LOX IMVI melanoma it was more than 88.6 µM; with SR leukemia it was 36.4 µM; with RXF 393 renal, more than 44 µM; in the test on NCI/ADR-RES ovarian it was 37.4 µM. Moreover, the total growth inhibition concentration (TGI) is more than 60.4 µM in the test on OVCAR-8 ovarian, 69 µM in the test on SNB-75 CNS, more than 100 µM in the test on IGROV1 ovarian and more than 70 µM in the test with SW-620 colon.

With `CC(=O)CCc1ccc(Oc2c3c(nc4ccccc24)OCC3)cc1`, the GI50 was 91.9 µM in the test on MOLT-4 leukemia; 42.9 µM with HOP-92 NSCLC; more than 100 µM in the test with LOX IMVI melanoma; 60.2 µM with SR leukemia; 22.3 µM in the test with RXF 393 renal; 29.5 µM in the test with NCI/ADR-RES ovarian. Besides, the GI50 in the test with OVCAR-8 ovarian is 3.76 µM; in the test with SNB-75 CNS, 14.3 µM; in the test on IGROV1 ovarian it was more than 100 µM; in the test on SW-620 colon, more than 100 µM. Moreover, the TGI with MOLT-4 leukemia, with HOP-92 NSCLC, in the test with LOX IMVI melanoma, with SR leukemia, with RXF 393 renal and in the test with NCI/ADR-RES ovarian was more than 100 µM each time. Further, the TGI in the test with OVCAR-8 ovarian is more than 100 µM; in the test with SNB-75 CNS it was 61.7 µM; in the test on IGROV1 ovarian it was more than 100 µM; in the test on SW-620 colon, more than 100 µM.
